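In this assay, cells in 96-well plates receive the compound at five concentrations for 48 hours. Endpoints are linearly interpolated between the surrounding concentrations. TGI is the concentration that stops growth completely.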
Legend:
Experiment in all cases: DTP human tumour cell line panel, 48 h
[1] = system: SN12C renal
[2] = system: SF-295 CNS
[3] = system: RPMI-8226 leukemia
[4] = system: HL-60(TB) leukemia
[5] = system: SR leukemia
[6] = system: NCI-H522 lung
[7] = system: ACHN renal
[8] = system: MCF7 breast
[9] = system: CAKI-1 renal
[10] = system: IGROV1 ovarian
[11] = system: HCT-15 colon
[12] = system: HOP-92 NSCLC
[13] = system: NCI-H226 lung
[14] = system: SK-MEL-2 melanoma
[15] = system: LOX IMVI melanoma
[16] = system: SNB-19 CNS
[17] = system: HT29 colon
[18] = system: NCI-H23 lung
[19] = system: MDA-N
[20] = system: HCT-116 colon

| SMILES | TGI [1] [µM] | TGI [2] [µM] | TGI [3] [µM] | TGI [4] [µM] | TGI [5] [µM] | TGI [6] [µM] | TGI [7] [µM] | TGI [8] [µM] | TGI [9] [µM] | TGI [10] [µM] | TGI [11] [µM] | TGI [12] [µM] | TGI [13] [µM] | TGI [14] [µM] | TGI [15] [µM] | TGI [16] [µM] | TGI [17] [µM] | TGI [18] [µM] | TGI [19] [µM] | TGI [20] [µM] |
| --- | --- | --- | --- | --- | --- | --- | --- | --- | --- | --- | --- | --- | --- | --- | --- | --- | --- | --- | --- | --- |
| CC(C)(O)c1cc2c(cc1C(C)(C)O)-c1ccccc1-2 | > 100 | > 100 | > 100 | > 100 | > 100 | > 100 | > 100 | > 100 | > 100 | > 100 | > 100 | > 100 | > 100 | > 100 | > 100 | > 100 | – | – | – | – |
| Cn1nnc2c3c(N(CCO)CCO)ccnc3ccc21 | > 100 | > 100 | – | – | > 100 | – | > 100 | > 100 | > 100 | > 100 | > 100 | – | – | > 100 | > 100 | > 100 | > 100 | > 100 | > 100 | > 100 |
| Nc1ccccc1C(=O)N=Nc1c(O)[nH]c2ccccc12 | > 100 | > 100 | – | – | > 100 | > 100 | > 100 | > 100 | > 100 | > 100 | > 100 | – | > 100 | > 100 | – | > 100 | > 100 | > 100 | > 100 | > 100 |
| COc1cc([C@@H]2c3cc4c(cc3[C@@H](Nc3ccc(Cl)cc3C(=O)c3ccccc3)[C@H]3COC(=O)[C@H]23)OCO4)cc(OC)c1OC | > 100 | – | > 100 | 1.09 | – | 0.918 | > 100 | > 100 | > 100 | 7.6 | – | – | – | > 100 | > 100 | > 85.1 | – | > 29.6 | > 93.6 | > 100 |
| CCOC(=O)C1=C(OC(OCC)C(CC)[Se]c2ccccc2)CCC1 (stereo not given) | 47.2 | 65.5 | 53.2 | 39.1 | 83.4 | 29.1 | > 100 | – | > 100 | > 100 | 42.9 | 45.8 | 53.5 | > 100 | 20.5 | > 100 | 58.1 | 27.5 | – | > 100 |
| CCCc1nc2c(n1CC)C(=O)c1ccccc1C2=O | > 100 | > 100 | > 100 | > 100 | > 100 | > 100 | > 100 | > 100 | – | > 100 | 98 | – | > 100 | – | – | > 100 | 53.3 | > 100 | 49.4 | > 100 |
| O=[N+]([O-])c1ccc(-c2nn3c(C45CC6CC(CC(C6)C4)C5)nnc3s2)c(Cl)c1 | > 100 | > 100 | > 100 | > 100 | > 100 | > 100 | > 100 | – | > 100 | > 100 | > 100 | > 100 | > 100 | > 100 | > 100 | > 100 | > 100 | > 100 | > 100 | > 100 |
| COc1ccccc1N/C(SCc1ccccc1)=C(/C(Cl)=C(Cl)Cl)[N+](=O)[O-] | 47.3 | 59.6 | 88.2 | – | – | – | > 100 | > 100 | 74.9 | – | 49.8 | – | > 100 | > 100 | – | > 100 | 42.4 | 31.7 | > 100 | > 100 |
| CC(=O)/C(=C\I)c1ccccc1 | – | 33.7 | 5.26 | 3.49 | – | – | – | 4.05 | – | 4.25 | 3.35 | 4.74 | 47.6 | 4.75 | 3.59 | 24.5 | 2.29 | 4.99 | 3.28 | 4.65 |
| O=C1Oc2ccccc2C(=O)/C1=C/N1C(=O)CNC1=S | > 100 | > 100 | > 100 | > 100 | – | > 100 | > 100 | > 100 | > 100 | > 100 | > 100 | – | > 100 | > 100 | > 100 | > 100 | > 100 | > 100 | > 100 | > 100 |
| O=c1c(Sc2c(SCSc3cnc4ccccc4c3Sc3c[nH]c4ccccc4c3=O)cnc3ccccc23)c[nH]c2ccccc12 | > 100 | > 100 | > 100 | > 100 | 25 | > 100 | > 100 | – | > 100 | > 100 | > 100 | > 100 | – | – | > 100 | > 100 | > 100 | > 100 | > 100 | > 100 |
| COC(=O)[C@@](NC(=O)OCc1ccccc1)([C@H](C)O)C(F)(F)F | – | > 100 | > 100 | > 100 | > 100 | > 100 | > 100 | – | > 100 | > 100 | > 100 | > 100 | > 100 | > 100 | > 100 | > 100 | > 100 | > 100 | – | > 100 |
| CSc1nc(=O)cnn1C | > 100 | > 100 | > 100 | – | > 100 | > 100 | > 100 | > 100 | > 100 | > 100 | > 100 | – | > 100 | > 100 | – | > 100 | > 100 | > 100 | > 100 | > 100 |
| Cc1cn(C2CC(N=[N+]=[N-])C(COP(=O)(O)OCC3OC(n4cc(F)c(=O)[nH]c4=O)CC3O)O2)c(=O)[nH]c1=O (stereo not given) | > 100 | > 100 | – | > 100 | > 100 | > 100 | > 100 | > 100 | > 100 | 9.57 | > 100 | – | > 100 | > 100 | > 100 | > 31.6 | > 100 | > 79.7 | > 100 | > 100 |
